Converted amounts (≈) assume the structure as drawn.
How the values were obtained:
[1] = test system: Rattus norvegicus
[2] = test system: Typhlodromus pyri; experiment: LR50; higher = less toxic; conditions: acute; duration: 48 hours; mortality
[3] = test system: Aphidius rhopalosiphi; experiment: LR50; higher = less toxic; conditions: acute; duration: 48 hours; mortality
[4] = test system: Tagia sp.; conditions: acute; duration: 14 days; mortality
[5] = test system: Anas platyrhynchos; conditions: oral, mortality
[6] = test system: Colinus virginianus; conditions: acute, oral, mortality
[7] = test system: Mus musculus; conditions: acute; oral; mortality
[8] = test system: Neomysis kadiakensis; conditions: chronic/long-term; duration: 28 days; reproduction
[9] = test system: Apis mellifera; conditions: acute; duration: 24 hours; oral; unspecified; mortality
[10] = test system: Pimephales promelas; conditions: chronic/long-term; duration: 32 days; growth
[11] = test system: Cyprinus carpio; conditions: acute; duration: 96 hours; mortality
[12] = test system: Daphnia magna; conditions: chronic/long-term; duration: 21 days; mortality

Compound	NOAEL ([1]; developmental, development) [mg/kg-day]	LR50 [2] [g/ha]	LR50 [3] [g/ha]	LC50 [4] [mg/kg]	LD50 ([5]; acute, unspecified) [mg/kg-day]	LC50 ([5]; short-term, feed) [mg/kg-day]	LC50 ([6]; diet) [mg/kg-day]	LD50 [6] [mg/kg-day]	LD50 [7] [mg/kg-day]	NOEC [8] [mg/L]	LD50 [9] [µg/piece]	NOEC [10] [mg/L]	LC50 [11] [mg/L]	NOAEL ([1]; chronic, duration: 2 years) [mg/kg-day]	NOAEL ([1]; reproduction developmental, reproduction) [mg/kg-day]	NOAEL ([1]; subchronic, duration: 90 days, oral) [mg/kg-day]	NOEC [12] [mg/L]
O=c1ccc(C(F)(F)F)c[nH]1 [5-(Trifluoromethyl)pyridin-2(1H)-one]	60	–	–	–	–	–	–	–	–	–	–	–	–	–	–	–	–
CCCCOC(=O)[C@@H](C)Oc1ccc(Oc2ccc(C(F)(F)F)cn2)cc1 [Fluazifop-P-butyl]	2	5.6	177	> 1000	> 3960	> 942	> 1070	> 2000	> 2000	0.0477	> 200	0.077	1.31 (≈ 3.42 µM)	1	6.72	0.9	0.25
CC(Oc1ccc(Oc2ccc(C(F)(F)F)cn2)cc1)C(=O)O (centres undefined) [Fluazifop]	–	–	–	–	–	–	–	–	–	–	–	–	–	1	–	–	–

Source: EPA's ToxValDB 9.5 (doi:10.2903/j.efsa.2012.2945)
